According to patent publication US7423044B2, “Pyrimidine derivatives useful in the treatment of insulin resistance and hyperglycemia” (Wyeth, priority 2002, dated 2008):

These compounds were tested against T1, PTP-1B (Homo sapiens, UniProt P18031) (assay: PTPase inhibition assay (DIFMUP fluorescence kinetic assay)). Conditions: apparent final potency from steady-state velocity (Vs); 20 μM DIFMUP, 1 nM enzyme; read-out: Kiapp.
T1 sequence (P18031 1-435): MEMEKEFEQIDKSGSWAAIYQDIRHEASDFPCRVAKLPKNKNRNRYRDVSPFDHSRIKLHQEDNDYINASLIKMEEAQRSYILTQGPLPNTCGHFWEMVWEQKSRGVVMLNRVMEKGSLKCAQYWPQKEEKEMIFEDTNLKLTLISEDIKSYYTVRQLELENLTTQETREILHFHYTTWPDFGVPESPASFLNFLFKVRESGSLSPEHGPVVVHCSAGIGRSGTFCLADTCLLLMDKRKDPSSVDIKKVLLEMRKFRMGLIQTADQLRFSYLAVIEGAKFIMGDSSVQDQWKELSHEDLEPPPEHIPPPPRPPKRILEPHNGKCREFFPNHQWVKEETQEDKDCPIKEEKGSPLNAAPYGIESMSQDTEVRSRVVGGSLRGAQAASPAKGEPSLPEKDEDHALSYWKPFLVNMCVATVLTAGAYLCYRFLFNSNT
Format: biochemical
Description: Measurement of PTPase activity: The present compounds are assayed in an enzyme activity-based assay. PTP-1B is known to dephosphorylate phospho-peptides. This assay is a fluorescence intensity based kinetic assay, taking advantage of a non-peptidyl substrate, 6,8-difluoro-4-methylumbelliferyl phosphate (DIFMUP). When excited at 358 nm, the dephosphorylated product of DIFMUP emits at 450 nm.
The compounds of Examples 1-22 were analyzed as follows. The assay was conducted in black 384-well non-treated plates (Costar#3710). The assay buffer contained 50 mM 3,3-dimethyl glutaric acid, pH 7.0, 48 mM NaCl, 1 mM EDTA. Inhibitors were prepared as DMSO solution and diluted to desired concentrations using 50 mM HEPES, pH 7.4. PTP-1B was diluted to a 2.5 nM working stock using the assay buffer containing additional 0.001% (w/v) hydrogenated Triton X-100. DIFMUP was diluted to 40 μM using the assay buffer. 5 μl of inhibitor was first dispensed into assay plate. In cases of control reactions, […] of the assay buffer was dispensed. This was followed by 25 μl of DIFMUP working stock. The reaction was then initiated by the addition of 20 μl of PTP-1B working stock. The final DIFMUP concentration was 20 μM (˜1.6×Km). The final enzyme concentration was 1 nM and the detergent concentration was 0.0004% (w/v). Typical inhibitor concentrations were from 0.08 to 40 μM. The reaction progress was monitored continuously for 30 min.
Calculations: For data analysis, the last five data points were used to obtain a slope corresponding to the estimated steady-state velocity (Vs), and the overall progress curves were used to obtain the average velocity (Va), by linear regression in both cases. The apparent final potency of inhibitor (Kiapp) was then calculated from Vs data, using the standard hyperbolic inhibition equation. The IC50 values were calculated from Va data using the sigmoidal inhibition equation. % Inhibition values were calculated from Va values of inhibitor at 40 μM, and the average Va value of control reactions.

Row | SMILES | Ki [nM]
1 | O=C(O)c1ccc(COc2cc(-c3ccccc3)nc(-c3ccc(Cl)cc3)n2)cc1 [Example 1, 4-({[2-(4-Chlorophenyl)-6-phenylpyrimidin-4-yl]oxy}methyl)benzoic acid] | 1670
2 | O=C(O)c1ccc(COc2cc(-c3ccccc3)nc(-c3ccncc3)n2)cc1 [Example 6, 4-{[(6-Phenyl-2-pyridin-4-ylpyrimidin-4-yl)oxy]methyl}benzoic acid] | 7210
3 | O=C(O)c1ccc(COc2cc(-c3ccccc3)nc(-c3ccccc3)n2)cc1 [Example 7, 4-{[(2,6-Diphenylpyrimidin-4-yl)oxy]methyl}benzoic acid] | 2970

Same assay, conditions: inhibitor at 40 μM; from average velocity (Va); 20 μM DIFMUP, 1 nM enzyme

Row | SMILES | inhibition at 40 µM [%]
4 | O=C(O)c1ccc(COc2cc(-c3ccccc3)nc(-c3ccc(Cl)cc3)n2)cc1 [Example 1, 4-({[2-(4-Chlorophenyl)-6-phenylpyrimidin-4-yl]oxy}methyl)benzoic acid] | 100
5 | Fc1ccc(COc2nc(-c3ccc(Cl)cc3)nc3c2CCC3)cc1 [Example 2, 2-(4-Chlorophenyl)-4-[(4-fluorobenzyl)oxy]-6,7-dihydro-5H-cyclopenta[d]pyrimidine] | 10
6 | Fc1ccc(COc2cc(-c3ccccc3)nc(-c3ccncc3)n2)cc1 [Example 3, 4-[(4-Fluorobenzyl)oxy]-6-phenyl-2-pyridin-4-ylpyrimidine] | 11
7 | Fc1ccc(COc2nc(-c3ccccc3)nc3c2CCC3)cc1 [Example 4, 4-[(4-Fluorobenzyl)oxy]-2-phenyl-6,7-dihydro-5H-cyclopenta[d]pyrimidine] | 12
8 | Fc1ccc(COc2cc(-c3ccccc3)nc(-c3ccc(Cl)cc3)n2)cc1 [Example 5, 2-(4-Chlorophenyl)-4-[(4-fluorobenzyl)oxy]-6-phenylpyrimidine] | 11
9 | O=C(O)c1ccc(COc2cc(-c3ccccc3)nc(-c3ccncc3)n2)cc1 [Example 6, 4-{[(6-Phenyl-2-pyridin-4-ylpyrimidin-4-yl)oxy]methyl}benzoic acid] | 56
10 | O=C(O)c1ccc(COc2cc(-c3ccccc3)nc(-c3ccccc3)n2)cc1 [Example 7, 4-{[(2,6-Diphenylpyrimidin-4-yl)oxy]methyl}benzoic acid] | 99
11 | CC(C)c1cc(OCc2ccc(F)cc2)nc(-c2cc(Cl)cc(Cl)c2)n1 [Example 8, 2-(3,5-Dichlorophenyl)-4-[(4-fluorobenzyl)oxy]-6-isopropylpyrimidine] | 48
12 | Fc1ccc(COc2nc(-c3cc(Cl)cc(Cl)c3)nc3c2CN(Cc2ccccc2)CC3)cc1 [Example 9, 6-Benzyl-2-(3,5-dichlorophenyl)-4-[(4-fluorobenzyl)oxy]-5,6,7,8-tetrahydropyrido[4,3-d]pyrimidine] | 55
13 | CC(C)c1cc(OCc2ccc(F)cc2)nc(-c2cccc([N+](=O)[O-])c2)n1 [Example 10, 4-[(4-Fluorobenzyl)oxy]-6-isopropyl-2-(3-nitrophenyl)pyrimidine] | 56
14 | CC(C)c1cc(OCc2ccc(C#N)cc2)nc(-c2cc(Cl)cc(Cl)c2)n1 [Example 11, 4-({[2-(3,5-Dichlorophenyl)-6-isopropylpyrimidin-4-yl]oxy}methyl)benzonitrile] | 34
15 | N#Cc1ccc(COc2nc(-c3cc(Cl)cc(Cl)c3)nc3c2CN(Cc2ccccc2)CC3)cc1 [Example 12, 4-({[6-Benzyl-2-(3,5-dichlorophenyl)-5,6,7,8-tetrahydropyrido[4,3-d]pyrimidin-4-yl]oxy}methyl)benzonitrile] | 54
16 | CC(C)c1cc(OCc2ccc(C#N)cc2)nc(-c2cccc([N+](=O)[O-])c2)n1 [Example 13, 4-({[6-isopropyl-2-(3-nitrophenyl)pyrimidin-4-yl]oxy}methyl)benzonitrile] | 55
17 | N#Cc1ccc(COc2nc(-c3cccc([N+](=O)[O-])c3)nc3c2CN(Cc2ccccc2)CC3)cc1 [Example 14, 4-({[6-Benzyl-2-(3-nitrophenyl)-5,6,7,8-tetrahydropyrido[4,3-d]pyrimidin-4-yl]oxy}methyl)benzonitrile] | 64
18 | CC(C)c1cc(OCc2ccc(C(F)(F)F)cc2)nc(-c2cc(Cl)cc(Cl)c2)n1 [Example 15, 2-(3,5-Dichlorophenyl)-4-isopropyl-6-{[4-(trifluoromethyl)benzyl]oxy} pyrimidine] | 57
19 | FC(F)(F)c1ccc(COc2nc(-c3cc(Cl)cc(Cl)c3)nc3c2CN(Cc2ccccc2)CC3)cc1 [Example 16, 6-Benzyl-2-(3,5-dichlorophenyl)-4-{[4-(trifluoromethyl)benzyl]oxy}-5,6,7,8-tetrahydropyrido[4,3-d]pyrimidine] | 52
20 | CC(C)c1cc(OCc2ccc(C(F)(F)F)cc2)nc(-c2cccc([N+](=O)[O-])c2)n1 [Example 17, 4-Isopropyl-2-(3-nitrophenyl)-6-{[4-(trifluoromethyl)benzyl]oxy} pyrimidine] | 49
21 | O=[N+]([O-])c1cccc(-c2nc3c(c(OCc4ccc(C(F)(F)F)cc4)n2)CN(Cc2ccccc2)CC3)c1 [Example 18, 6-Benzyl-2-(3-nitrophenyl)-4-{[4-(trifluoromethyl)benzyl]oxy}-5,6,7,8-tetrahydropyrido[4,3-d]pyrimidine] | 51
22 | CC(C)c1cc(OCc2ccc(C(=O)O)cc2)nc(-c2cc(Cl)cc(Cl)c2)n1 [Example 19, 4-({[2-(3,5-Dichlorophenyl)-6-isopropylpyrimidin-4-yl]oxy}methyl)benzoic acid] | 101
23 | O=C(O)c1ccc(COc2nc(-c3cc(Cl)cc(Cl)c3)nc3c2CN(Cc2ccccc2)CC3)cc1 [Example 20, 4-({[6-Benzyl-2-(3,5-dichlorophenyl)-5,6,7,8-tetrahydropyrido[4,3-d]pyrimidin-4-yl]oxy}methyl)benzoic acid] | 100
24 | CC(C)c1cc(OCc2ccc(C(=O)O)cc2)nc(-c2cccc([N+](=O)[O-])c2)n1 [Example 21, 4-({[6-Isopropyl-2-(3-nitrophenyl)pyrimidin-4-yl]oxy}methyl)benzoic acid] | 101
25 | O=C(O)c1ccc(COc2nc(-c3cccc([N+](=O)[O-])c3)nc3c2CN(Cc2ccccc2)CC3)cc1 [Example 22, 4-({[6-Benzyl-2-(3-nitrophenyl)-5,6,7,8-tetrahydropyrido[4,3-d]pyrimidin-4-yl]oxy}methyl)benzoic acid] | 93
